Measured values: the NIST ThermoML archive (doi:10.1021/acs.jced.8b00591)

Experiment: xn = mol fraction of the nth substance listed
Conditions: 101.3 kPa, Liquid; for viscosity: Falling or rolling sphere viscometry; for mass density: Vibrating tube method

CCCC[n+]1ccn(C)c1.O=S(=O)([N-]S(=O)(=O)C(F)(F)F)C(F)(F)F + CCOC(=O)OCC
Conditions | mass density [kg/m3] | viscosity [mPa·s]
288.15 K, x1 = 0.1025 | 1086.84 | 2.12
288.15 K, x1 = 0.2198 | 1177.9 | 4.415
288.15 K, x1 = 0.3178 | 1236.57 | 7.583
288.15 K, x1 = 0.4211 | 1285.86 | 13.26
288.15 K, x1 = 0.5268 | 1327.09 | 20.12
288.15 K, x1 = 0.622 | 1358.33 | 28.36
288.15 K, x1 = 0.7193 | 1385.68 | 38.93
288.15 K, x1 = 0.8139 | 1408.25 | 50.88
288.15 K, x1 = 0.9088 | 1428.49 | 64.94
288.15 K, x1 = 1 | 1445.66 | 78.02
293.15 K, x1 = 0.1025 | 1081.45 | 1.928
293.15 K, x1 = 0.2198 | 1172.7 | 3.925
293.15 K, x1 = 0.3178 | 1231.47 | 6.526
293.15 K, x1 = 0.4211 | 1280.83 | 11.18
293.15 K, x1 = 0.5268 | 1322.13 | 17.25
293.15 K, x1 = 0.622 | 1353.42 | 23.42
293.15 K, x1 = 0.7193 | 1380.79 | 31.68
293.15 K, x1 = 0.8139 | 1403.38 | 40.79
293.15 K, x1 = 0.9088 | 1423.65 | 51.44
293.15 K, x1 = 1 | 1440.84 | 61.32
298.15 K, x1 = 0.1025 | 1076.05 | 1.764
298.15 K, x1 = 0.2198 | 1167.48 | 3.517
298.15 K, x1 = 0.3178 | 1226.35 | 5.739
298.15 K, x1 = 0.4211 | 1275.8 | 9.492
298.15 K, x1 = 0.5268 | 1317.16 | 14.77
298.15 K, x1 = 0.622 | 1348.49 | 19.58
298.15 K, x1 = 0.7193 | 1375.9 | 26.16
298.15 K, x1 = 0.8139 | 1398.52 | 33.25
298.15 K, x1 = 0.9088 | 1418.81 | 41.43
298.15 K, x1 = 1 | 1436.01 | 48.93
303.15 K, x1 = 0.1025 | 1070.65 | 1.618
303.15 K, x1 = 0.2198 | 1162.26 | 3.168
303.15 K, x1 = 0.3178 | 1221.23 | 5.085
303.15 K, x1 = 0.4211 | 1270.77 | 8.179
303.15 K, x1 = 0.5268 | 1312.2 | 12.6
303.15 K, x1 = 0.622 | 1343.58 | 17.03
303.15 K, x1 = 0.7193 | 1371.04 | 21.88
303.15 K, x1 = 0.8139 | 1393.68 | 27.57
303.15 K, x1 = 0.9088 | 1413.97 | 34.06
303.15 K, x1 = 1 | 1431.21 | 39.84
308.15 K, x1 = 0.1025 | 1065.23 | 1.492
308.15 K, x1 = 0.2198 | 1157.03 | 2.873
308.15 K, x1 = 0.3178 | 1216.12 | 4.539
308.15 K, x1 = 0.4211 | 1265.74 | 7.219
308.15 K, x1 = 0.5268 | 1307.25 | 10.76
308.15 K, x1 = 0.622 | 1338.67 | 14.69
308.15 K, x1 = 0.7193 | 1366.17 | 18.7
308.15 K, x1 = 0.8139 | 1388.84 | 23.2
308.15 K, x1 = 0.9088 | 1409.18 | 28.32
308.15 K, x1 = 1 | 1426.43 | 32.91
313.15 K, x1 = 0.1025 | 1059.8 | 1.385
313.15 K, x1 = 0.2198 | 1151.8 | 2.614
313.15 K, x1 = 0.3178 | 1210.99 | 3.977
313.15 K, x1 = 0.4211 | 1260.71 | 6.414
313.15 K, x1 = 0.5268 | 1302.3 | 9.287
313.15 K, x1 = 0.622 | 1333.78 | 12.63
313.15 K, x1 = 0.7193 | 1361.32 | 16.35
313.15 K, x1 = 0.8139 | 1384.01 | 19.64
313.15 K, x1 = 0.9088 | 1404.39 | 23.69
313.15 K, x1 = 1 | 1421.66 | 27.56
318.15 K, x1 = 0.1025 | 1054.35 | 1.286
318.15 K, x1 = 0.2198 | 1146.57 | 2.391
318.15 K, x1 = 0.3178 | 1205.88 | 3.591
318.15 K, x1 = 0.4211 | 1255.69 | 5.815
318.15 K, x1 = 0.5268 | 1297.36 | 8.069
318.15 K, x1 = 0.622 | 1328.9 | 10.92
318.15 K, x1 = 0.7193 | 1356.48 | 14.18
318.15 K, x1 = 0.8139 | 1379.19 | 16.89
318.15 K, x1 = 0.9088 | 1399.6 | 20.05
318.15 K, x1 = 1 | 1416.91 | 23.33
323.15 K, x1 = 0.1025 | 1048.88 | 1.198
323.15 K, x1 = 0.2198 | 1141.33 | 2.194
323.15 K, x1 = 0.3178 | 1200.77 | 3.259
323.15 K, x1 = 0.4211 | 1250.68 | 5.216
323.15 K, x1 = 0.5268 | 1292.44 | 7.105
323.15 K, x1 = 0.622 | 1324.02 | 9.492
323.15 K, x1 = 0.7193 | 1351.66 | 12.28
323.15 K, x1 = 0.8139 | 1374.39 | 14.6
323.15 K, x1 = 0.9088 | 1394.85 | 17.26
323.15 K, x1 = 1 | 1412.17 | 19.97
328.15 K, x1 = 0.1025 | 1043.4 | 1.117
328.15 K, x1 = 0.2198 | 1136.07 | 2.025
328.15 K, x1 = 0.3178 | 1195.65 | 2.978
328.15 K, x1 = 0.4211 | 1245.68 | 4.71
328.15 K, x1 = 0.5268 | 1287.5 | 6.138
328.15 K, x1 = 0.622 | 1319.16 | 8.288
328.15 K, x1 = 0.7193 | 1346.84 | 10.66
328.15 K, x1 = 0.8139 | 1369.58 | 12.69
328.15 K, x1 = 0.9088 | 1390.1 | 15
328.15 K, x1 = 1 | 1407.45 | 17.41
